Assay results as given in publication PMC12133982, “Predominant T-cell epitopes of SARS-CoV-2 restricted by multiple prevalent HLA-B and HLA-C allotypes in Northeast Asia” (Frontiers in Immunology, 2025).
Peptide text beside a SMILES is read from it.

Legend:
HLA-B3501 = HLA-B3501 (Homo sapiens, UniProt P01889, A329T/A93T/A95T/C349S/D201E/D98Y/E176V/E187L/E204Q/E69T/I218V/K202T/L119I/Q94N/R155S/R180L/S121R/S35A/S48A/T118I/V127L/V306I/V36M/Y140S/Y91F); test: Competitive peptide binding assay, CIR-B3501; conditions: HMy2.CIR-B3501 cells, reference Cy5-[…], class from inhibition at 5 and 15 μM, flow cytometry MFI; read-out: Binding affinity with HLA-B3501
Procedure: (§1) Then, competitive peptide binding assays were performed.

HLA-B4801 = HLA-B4801 (Homo sapiens, UniProt P01889, A269T/A93T/A95T/D138N/D98Y/E176V/N87E/Q94N/R180L/T167S/W171L/Y91S); test: Competitive peptide binding assay, CIR-B4801; conditions: HMy2.CIR-B4801 cells, reference Cy5-[…], class from inhibition at 5 and 15 μM, flow cytometry MFI; read-out: Binding affinity with HLA-B4801
Procedure: as §1

HLA-B1501 = HLA-B1501 (Homo sapiens, UniProt P01889, A329T/A93T/A95T/C349S/D201E/D98Y/E187L/E204Q/E69M/E70A/K202T/N87E/Q94N/R155S/R180W/S121R/S35A/S48A/V306I/V36M/Y140S/Y91S); test: Competitive peptide binding assay, CIR-B1501; conditions: HMy2.CIR-B1501 cells, reference Cy5-[…], class from inhibition at 5 and 15 μM, flow cytometry MFI; read-out: Binding affinity with HLA-B1501
Procedure: as §1

HLA-B4601 = HLA-B4601 (Homo sapiens, UniProt P01889, A329T/A93R/C349S/D201E/E100V/E187L/E204Q/E69M/E70A/I90K/K202T/N87E/R155S/R180W/S121R/S35A/S48A/V306I/V36M/Y140S); test: Competitive peptide binding assay, CIR-B4601; conditions: for IC50: HMy2.CIR-B4601 cells, reference Cy5-[…], class from inhibition at 5 and 15 μM, flow cytometry MFI, read-out: Binding affinity with HLA-B4601; for inhibition at 5 µM: read-out: Inhibition % of Cy5-reference peptide binding, CIR-B4601, 5μM peptide; for inhibition at 15 µM: read-out: Inhibition % of Cy5-reference peptide binding, CIR-B4601, 15μM peptide
Procedure: as §1

HLA-B1301 = HLA-B1301 (Homo sapiens, UniProt P01889, A65T/A93T/A95T/D138N/D201E/D98Y/E176V/E204Q/E69M/E70A/G107R/K202T/L105A/L119I/N104T/N87E/Q94N/R106L/R155S/R169L/R180L/S101N/S121R/S35A/S48T/T118I/V127L/V36M/Y140L/Y91S); test: Competitive peptide binding assay, CIR-B1301; conditions: HMy2.CIR-B1301 cells, reference Cy5-[…], class from inhibition at 5 and 15 μM, flow cytometry MFI; read-out: Binding affinity with HLA-B1301
Procedure: as §1

HLA-B1502 = HLA-B1502 (Homo sapiens, UniProt P01889, A329T/A93T/A95T/C349S/D201E/D98Y/E187L/E204Q/E69M/E70A/H137Y/K202T/L119I/Q94N/R155S/R180L/S121R/S35A/S48A/T118I/V306I/V36M/Y140S/Y91S); test: Competitive peptide binding assay, CIR-B1502; conditions: HMy2.CIR-B1502 cells, reference Cy5-[…], class from inhibition at 5 and 15 μM, flow cytometry MFI; read-out: Binding affinity with HLA-B1502
Procedure: as §1

HLA-B5801 = HLA-B5801 (Homo sapiens, UniProt P01889, A329T/C349S/D201E/D98Y/E176V/E187L/E204Q/E69T/G107R/I218V/I90N/K202T/L105A/L119I/N104I/N87E/Q89R/Q94S/R106L/R155S/R180L/R86G/S101N/S121R/S35A/S48A/T118I/V127L/V306I/V36M/Y140S/Y91M); test: Competitive peptide binding assay, CIR-B5801; conditions: HMy2.CIR-B5801 cells, reference Cy5-[…], class from inhibition at 5 and 15 μM, flow cytometry MFI; read-out: Binding affinity with HLA-B5801
Procedure: as §1

HLA-B1302 = HLA-B1302 (Homo sapiens, UniProt P01889, A65T/A93T/A95T/D138N/D201E/D98Y/E176V/E204Q/E69M/E70A/G107R/K202T/L105A/L119W/N104T/N87E/Q94N/R106L/R155S/R169L/R180L/S101N/S121T/S35A/S48T/V127L/V36M/Y140L/Y91S); test: Competitive peptide binding assay, CIR-B1302; conditions: HMy2.CIR-B1302 cells, reference Cy5-MMWYWGPSL, class from inhibition at 5 and 15 μM, flow cytometry MFI; read-out: Binding affinity with HLA-B1302
Procedure: as §1

HLA-B4001 = HLA-B4001 (Homo sapiens, UniProt P01889, A65T/A93T/A95T/D138N/D98Y/E176V/E69K/N87E/Q56L/Q94N/R180L/S121R/S35A/S48T/T167S/V36M/W171L/Y33H/Y91S); test: Competitive peptide binding assay, CIR-B4001; conditions: HMy2.CIR-B4001 cells, reference Cy5-[…], class from inhibition at 5 and 15 μM, flow cytometry MFI; read-out: Binding affinity with HLA-B4001
Procedure: as §1

Row | SMILES | IC50 (HLA-B3501) [µM] | IC50 (HLA-B4801) [µM] | IC50 (HLA-B1501) [µM] | IC50 (HLA-B4601) [µM] | inhibition at 5 µM (HLA-B4601) [%] | inhibition at 15 µM (HLA-B4601) [%] | IC50 (HLA-B1301) [µM] | IC50 (HLA-B1502) [µM] | IC50 (HLA-B5801) [µM] | IC50 (HLA-B1302) [µM] | IC50 (HLA-B4001) [µM]
1 | CSCC[C@H](NC(=O)[C@H](CCCCN)NC(=O)CN)C(=O)N[C@@H](CCCCN)C(=O)N[C@@H](CC(=O)O)C(=O)N[C@@H](CC(C)C)C(=O)N[C@@H](CO)C(=O)N1CCC[C@H]1C(=O)N[C@@H](CCCNC(=N)N)C(=O)N[C@@H](Cc1c[nH]c2ccccc12)C(=O)O [Epitope Y224] (H-GKMKDLSPRW-OH; N-terminus and C-terminus assumed) | > 15 | 5 to 15 | > 15 | > 15 | 32.3 | 52.3 | > 15 | – | – | – | –
2 | CC[C@H](C)[C@H](NC(=O)[C@H](C)NC(=O)CNC(=O)[C@@H](NC(=O)[C@H](Cc1ccc(O)cc1)NC(=O)[C@@H](NC(=O)[C@@H](N)CC(C)C)[C@@H](C)O)[C@@H](C)O)C(=O)N[C@@H](CCCCN)C(=O)N[C@@H](CC(C)C)C(=O)O [Epitope Y243] (H-LTYTGAIKL-OH; N-terminus and C-terminus assumed) | > 15 | > 15 | > 15 | < 5 | 77.3 | 94 | > 15 | > 15 | – | – | –
3 | CC[C@H](C)[C@H](NC(=O)[C@H](C)NC(=O)[C@H](C)NC(=O)[C@H](CC(N)=O)NC(=O)CNC(=O)[C@H](CC(=O)O)NC(=O)[C@H](CCC(N)=O)NC(=O)[C@H](C)NC(=O)[C@@H](N)Cc1ccccc1)C(=O)O [Epitope Y246] (H-FAQDGNAAI-OH; N-terminus and C-terminus assumed) | > 15 | > 15 | > 15 | – | – | – | > 15 | > 15 | > 15 | > 15 | –
4 | CC[C@H](C)[C@H](NC(=O)[C@H](CC(=O)O)NC(=O)[C@H](CCCNC(=N)N)NC(=O)CNC(=O)[C@H](Cc1ccccc1)NC(=O)[C@H](CCC(N)=O)NC(=O)[C@H](CCC(N)=O)NC(=O)[C@H](Cc1ccccc1)NC(=O)[C@@H]1CCCN1C(=O)[C@@H](N)CC(C)C)C(=O)O [Epitope Y282] (H-LPFQQFGRDI-OH; N-terminus and C-terminus assumed) | – | > 15 | 5 to 15 | – | – | – | > 15 | > 15 | – | – | –
5 | C[C@H](NC(=O)[C@H](CO)NC(=O)[C@@H](N)CCCCN)C(=O)NCC(=O)N[C@@H](Cc1ccccc1)C(=O)N1CCC[C@H]1C(=O)N[C@@H](Cc1ccccc1)C(=O)N[C@@H](CC(N)=O)C(=O)N[C@@H](CCCCN)C(=O)N[C@@H](Cc1c[nH]c2ccccc12)C(=O)O [Epitope Y306] (H-KSAGFPFNKW-OH; N-terminus and C-terminus assumed) | – | > 15 | > 15 | – | – | – | – | – | – | < 5 | > 15
